The results in this text go back to patent publication US12433899B2, “Therapeutics and method for treating osteoarthritis” (Calosyn Pharma Inc., priority 2021, dated 2025).

The subject of this test is medial meniscal tear-induced cartilage degeneration. Put plainly: Rat medial meniscal tear model, knee histopathology after intra-articular dosing. The test is classed as in vivo, Male Lewis rats. To be noted: IA 3 μg (each) Q4D days 4, 8, 12, 16, 20, 24; vs Q4D vehicle controls.

Description: This model is performed by transection of the medial collateral ligament just below its attachment to the meniscus so that when the joint space opens, the meniscus is reflected toward the femur. The meniscus is cut at its narrowest point (away from the ossicles) taking care not to damage the tibial surface and making sure that the resulting transection produces separate, freely movable anterior and posterior meniscus halves.
Experimental Design: Animals were anesthetized with Isoflurane and the right knee area was prepared for surgery. A skin incision was made over the medial aspect of the knee and the medial collateral ligament was exposed by blunt dissection, and then transected. The medial meniscus was cut through the full thickness to simulate a complete tear. Skin and subcutis were closed with 4-0 Vicryl suture. Dosing by the intra-articular (IA) route began four days after surgery and continued as indicated below until day 24. Treatment groups were as follows: […]
All three sections of each knee were analyzed microscopically. In scoring the three sections, the worst-case scenario for the two halves on each slide was determined for general cartilage degeneration, proteoglycan loss, collagen damage, and osteophyte formation. […] When zones are scored individually, scores are assigned based on % area of the zone affected. […]

On to `COc1ccc([C@@H]2Sc3ccccc3N(CCN(C)C)C(=O)[C@@H]2OC(C)=O)cc1` [Diltiazem, 5-[2-(dimethylamino)ethyl]-2-(4-methoxyphenyl)-4-oxo-2,3,4,5-tetrahydro-1,5-benzothiazepin-3-yl acetate], for which the “decrease in the total joint score” value was 6%.
